We go through 20 compounds from patent US10568876B2, “Tetrahydroisoquinoline derivatives useful as inhibitors of diacylglyceride O-acyltransferase 2” (Merck Sharp & Dohme Corp., priority 2014, dated 2020).

Sequence of hDGAT2 (Q96PD7 whole entry): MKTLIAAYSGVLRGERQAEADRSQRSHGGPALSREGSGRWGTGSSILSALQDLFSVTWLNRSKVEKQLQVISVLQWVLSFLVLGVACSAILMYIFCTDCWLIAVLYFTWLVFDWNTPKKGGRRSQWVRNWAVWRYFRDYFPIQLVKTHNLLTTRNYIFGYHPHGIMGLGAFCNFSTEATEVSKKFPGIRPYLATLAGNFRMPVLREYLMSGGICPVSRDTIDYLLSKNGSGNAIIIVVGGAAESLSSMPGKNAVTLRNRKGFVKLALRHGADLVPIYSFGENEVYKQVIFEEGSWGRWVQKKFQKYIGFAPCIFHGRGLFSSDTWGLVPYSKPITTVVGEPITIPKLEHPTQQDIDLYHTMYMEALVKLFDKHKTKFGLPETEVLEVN

The assay concerns the target hDGAT2 (Homo sapiens (Human), UniProt Q96PD7). The assay is described as follows: DGAT2 Enzymatic Activity Assay. Format: biochemical. The note with it: hDGAT2 Sf-9 membrane prep; 25 μM diolein, 10 μM oleoyl-CoA; triolein product by LC/MS/MS; read-out: IC50 values for inhibition of DGAT2. The procedure:
Sf-9 insect cells were maintained in Grace's insect cell culture medium with 10% heated-inactivated fetal bovine serum, 1% Pluronic F-68 and 0.14 μg/ml Kanamycine sulfate in Erlenmeyer flasks at 28° C. in a shaker incubator. After infection with untagged hDGAT2 baculovirus at multiplicity of infection (MOI) 0.1 for 48 hours, cells were harvested. Cell pellets were suspended in buffer containing 10 mM Tris-HCl (pH 7.5), 1 mM EDTA (pH 8.0), 250 mM sucrose and Complete Protease Inhibitor Cocktail (Roche Diagnostics Corp., Indianapolis, Ill.), and sonicated on ice. Membrane fractions were isolated by ultracentrifugation (100,000×g pellet), resuspended in the same buffer, and frozen (−80° C.) for later use. The protein concentration was determined with the BCA Protein Assay kit (Pierce Biotechnology Inc., Rockford, Ill.). Expression of protein levels was analyzed by immunoblotting with goat polyclonal DGAT2 antibody C-15 and donkey anti-goat IgG HRP (Santa Cruz Biotechnology, Inc., Santa Cruz, Calif.) followed by detection with ECL reagent (GE Healthcare, Piscataway, N.J.).
LC/MS/MS analyses were performed using Thermal Fisher's LX4-TSQ Vantage system. This system consists of an Agilent binary high-performance liquid chromatography (HPLC) pumps and a TSQ Vantage triple quadrupole MS/MS instrument. For each sample, 2 μL, samples from the top organic layer of in-plate liquid-liquid extraction were injected onto a Thermo Betabasic C4 column (2.1 mm×20 mm, 5 μm particle size). The samples were then eluted using the following conditions; mobile phase: methanol/water with 0.1% ammonium format=92/8 (v/v), flow rate: 1 mL/min, temperature: 25 C. Data was acquired in positive mode using a heated electrospray ionization (HESI) interface. The operational parameters for the TSQ Vantage MS/MS instrument were a spray voltage of 3000 V, capillary temperature of 280° C., vaporizer temperature 400° C., shealth gas 60 arbitrary unit, Aux gas 40 arbitrary units, S-lens 113 and collision gas 0.16 Pascals. […] (SRM) chromatograms of triolein (Q1: 902.9>Q3: 602.3) and internal standard (Q1: 902.9>Q3: 602.3) were collected for 40 sec. The peak area was integrated by Xcalibur Quan software. The ratio between the triolein generated in the reaction and spiked in internal standard were used to generate percentage inhibition and IC50 values. Compound percentage inhibition was calculated by the following formula: Inhibition %=1-[(compound response low control)/(high control low control)]×100%. Potent compounds were titrated and IC50 were calculated by 4 parameter sigmoidal curve fitting formula.
DGAT2 activity was determined by measuring the amount of enzymatic product triolein (1,2,3-Tri(cis-9-octadecenoyl)glycerol) using the membrane prep mentioned above. The assay was carried out in deep well 384 plates in a final volume of 40 μL at room temperature. The assay mixture contained the following: assay buffer (100 mM Tris.Cl, pH 7.0, 20 mM MgCl2, 5% ethanol), 25 μM of diolein, 10 μM of oleoyl-CoA and 10 ng/μL of DGAT2 membrane.
For `COCCC(=O)N1CCc2c(-c3cccc(C(=O)OC)c3)ccc(CNC(=O)C3CC3c3ccccc3)c2C1` (centres unmarked) [Example 126, methyl 3-(2-(3-methoxypropanoyl)-8-((2-phenylcyclopropanecarboxamido)methyl)-1,2,3,4-tetrahydroisoquinolin-5-yl)benzoate], the half-inhibitory concentration (IC50) was found to be 1770 nM.
Under `Cc1noc([C@@H]2C[C@H]2C(=O)NCc2ccc(-c3cccc(OC(F)(F)F)c3)c3c2CN(C(=O)Nc2ccon2)CC3)n1` (relative stereo) [Example 2, N-(isoxazol-3-yl)-8-(((trans)-2-(3-methyl-1,2,4-oxadiazol-5-yl)cyclopropanecarboxamido)methyl)-5-(3-(trifluoromethoxy)phenyl)-3,4-dihydroisoquinoline-2(1H)-carboxamide] stands 112 nM.
For the compound `COC(=O)c1cccc(-c2ccc(CNC(=O)C3CC3c3ccccc3)c3c2CCN(C(=O)c2ccncc2)C3)c1` (centres unmarked) [Example 133, methyl 3-(2-isonicotinoyl-8-((2-phenylcyclopropanecarboxamido)methyl)-1,2,3,4-tetrahydroisoquinolin-5-yl)benzoate], the IC50 is 2510 nM.
Under `COc1cccc(-c2ccc(CNC(=O)C3CC3c3ccccc3)c3c2CCN(Cc2ccccc2)C3)c1` (centres unmarked) [Example 90, N-((2-benzyl-5-(3-methoxyphenyl)-1,2,3,4-tetrahydroisoquinolin-8-yl)methyl)-2-phenylcyclopropanecarboxamide] stands 4850 nM.
As for `COc1cccc(-c2ccc(CNC(=O)[C@@H]3C[C@H]3c3ccccc3)c3c2CCN(C(=O)C(C)(C)O)C3)c1` (relative stereo) [Example 117, (trans)-N-((2-(2-hydroxy-2-methylpropanoyl)-5-(3-methoxyphenyl)-1,2,3,4-tetrahydroisoquinolin-8-yl)methyl)-2-phenylcyclopropanecarboxamide], the IC50 came to 831 nM.
Under `CC(C)(C)NC(=O)N1CCc2c(-c3cccc(-c4nnco4)c3)ccc(CNC(=O)[C@@H]3C[C@H]3c3ccccc3)c2C1` (relative stereo) [Example 49, 5-(3-(1,3,4-oxadiazol-2-yl)phenyl)-N-(tert-butyl)-8-(((trans)-2-phenylcyclopropanecarboxamido)methyl)-3,4-dihydroisoquinoline-2(1H)-carboxamide] stands 10.4 nM.
Under `Cc1noc([C@@H]2C[C@H]2C(=O)NCc2ccc(-c3cccc(OC(F)(F)F)c3)c3c2CN(C(=O)NC2COC2)CC3)n1` (relative stereo) [Example 73, 8-(((trans)-2-(3-methyl-1,2,4-oxadiazol-5-yl)cyclopropanecarboxamido)methyl)-N-(oxetan-3-yl)-5-(3-(trifluoromethoxy)phenyl)-3,4-dihydroisoquinoline-2(1H)-carboxamide] stands 52 nM; under `COC(=O)c1cccc(-c2ccc(CNC(=O)C3CC3c3ccccc3)c3c2CCN(C(=O)C2(C#N)CC2)C3)c1` (centres unmarked) [Example 128, methyl 3-(2-(1-cyanocyclopropanecarbonyl)-8-((2-phenylcyclopropanecarboxamido)methyl)-1,2,3,4-tetrahydroisoquinolin-5-yl)benzoate], 1590 nM.
To `Cc1noc(C2CC2C(=O)NCc2ccc(-c3cccc(OC(F)(F)F)c3)c3c2CN(C(=O)NC2CCS(=O)(=O)C2)CC3)n1` (centres unmarked) [Example 60, N-(1,1-dioxidotetrahydrothiophen-3-yl)-8-((2-(3-methyl-1,2,4-oxadiazol-5-yl)cyclopropanecarboxamido)methyl)-5-(3-(trifluoromethoxy)phenyl)-3,4-dihydroisoquinoline-2(1H)-carboxamide] belongs 463 nM; to `COC(=O)c1cccc(-c2ccc(CNC(=O)C3CC3c3ccccc3)c3c2CCN(C(=O)C(C)C)C3)c1` (centres unmarked) [Example 130, methyl 3-(2-isobutyryl-8-((2-phenylcyclopropanecarboxamido)methyl)-1,2,3,4-tetrahydroisoquinolin-5-yl)benzoate], 281 nM; to `COc1cccc(-c2ccc(CNC(=O)[C@@H]3C[C@H]3c3nc(C)no3)c3c2CCN(C(=O)NC2(C)COC2)C3)c1` (relative stereo) [Example 53, 5-(3-methoxyphenyl)-8-(((trans)-2-(3-methyl-1,2,4-oxadiazol-5-yl)cyclopropanecarboxamido)methyl)-N-(3-methyloxetan-3-yl)-3,4-dihydroisoquinoline-2(1H)-carboxamide], 13.4 nM.
In the case of `Cc1noc([C@@H]2C[C@H]2C(=O)NCc2ccc(-c3cccc(OC(F)(F)F)c3)c3c2CN(Cc2scnc2C)CC3)n1` (relative stereo) [Example 106, (trans)-2-(3-methyl-1,2,4-oxadiazol-5-yl)-N-((2-((4-methylthiazol-5-yl)methyl)-5-(3-(trifluoromethoxy)phenyl)-1,2,3,4-tetrahydroisoquinolin-8-yl)methyl)cyclopropanecarboxamide], the IC50 is 1840 nM.
To `Cc1noc(C2CC2C(=O)NCc2ccc(-c3cccc(OC(F)(F)F)c3)c3c2CN(CC(=O)NC2CC2)CC3)n1` (centres unmarked) [Example 82, N-((2-(2-(cyclopropylamino)-2-oxoethyl)-5-(3-(trifluoromethoxy)phenyl)-1,2,3,4-tetrahydroisoquinolin-8-yl)methyl)-2-(3-methyl-1,2,4-oxadiazol-5-yl)cyclopropanecarboxamide] belongs 722 nM; to `CCN(CC)C(=O)CN1CCc2c(-c3cccc(OC(F)(F)F)c3)ccc(CNC(=O)C3CC3c3nc(C)no3)c2C1` (centres unmarked) [Example 81, N-((2-(2-(diethylamino)-2-oxoethyl)-5-(3-(trifluoromethoxy)phenyl)-1,2,3,4-tetrahydroisoquinolin-8-yl)methyl)-2-(3-methyl-1,2,4-oxadiazol-5-yl)cyclopropanecarboxamide], 658 nM; to `COC(=O)c1cccc(-c2ccc(CNC(=O)C3CC3c3nc(C)no3)c3c2CCN(C(=O)NC(C)(C)C)C3)c1` (centres unmarked) [Example 21, methyl 3-(2-(tert-butylcarbamoyl)-8-((2-(3-methyl-1,2,4-oxadiazol-5-yl)cyclopropanecarboxamido)methyl)-1,2,3,4-tetrahydroisoquinolin-5-yl)benzoate], 15.5 nM.
Consider `COc1cccc(-c2ccc(CNC(=O)[C@@H]3C[C@H]3c3ccccc3)c3c2CCN(C(=O)c2cc(F)cc(F)c2)C3)c1` (relative stereo) [Example 111, (trans)-N-((2-(3,5-difluorobenzoyl)-5-(3-methoxyphenyl)-1,2,3,4-tetrahydroisoquinolin-8-yl)methyl)-2-phenylcyclopropanecarboxamide], for which the IC50 was 971 nM.
Under `Cc1noc([C@H]2C[C@@H]2C(=O)NCc2ccc(-c3cccc(C(F)(F)F)c3)c3c2CN(C(=O)C(C)(C)O)CC3)n1` (stereo in doubt) [Example 116, (trans)-N-((2-(2-hydroxy-2-methylpropanoyl)-5-(3-(trifluoromethyl)phenyl)-1,2,3,4-tetrahydroisoquinolin-8-yl)methyl)-2-(3-methyl-1,2,4-oxadiazol-5-yl)cyclopropanecarboxamide] stands 1580 nM.
Under `COC(=O)c1cccc(-c2ccc(CNC(=O)C3CC3c3ccccc3)c3c2CCN(C(=O)c2ccccc2)C3)c1` (centres unmarked) [Example 138, methyl 3-(2-benzoyl-8-((2-phenylcyclopropanecarboxamido)methyl)-1,2,3,4-tetrahydroisoquinolin-5-yl)benzoate] stands 176 nM; under `COC(=O)c1cccc(-c2ccc(CNC(=O)C3CC3c3nc(C)no3)c3c2CCN(C(=O)NC(C)(C)C)C3)c1` (centres unmarked) [Example 7, methyl 3-(2-(tert-butylcarbamoyl)-8-((2-(3-methyl-1,2,4-oxadiazol-5-yl)cyclopropanecarboxamido)methyl)-1,2,3,4-tetrahydroisoquinolin-5-yl)benzoate], 15.5 nM.
Under `CC(C)(C)NC(=O)N1CCc2c(-c3cccc(C(=O)NC4CC4)c3)ccc(CNC(=O)[C@@H]3C[C@H]3c3ccccc3)c2C1` (relative stereo) [Example 38, N-(tert-butyl)-5-(3-(cyclopropylcarbamoyl)phenyl)-8-(((trans)-2-phenylcyclopropanecarboxamido)methyl)-3,4-dihydroisoquinoline-2(1H)-carboxamide] stands 1430 nM.

A word on the IC50: it is the concentration needed to halve the response being measured.
